# In ChEMBL document CHEMBL1201862, “PubChem BioAssay data set” (2004):
#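 48-hour exposure; five concentrations; linearly interpolated endpoints. GI50 marks 50% less growth.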 The source made the active and inactive calls. Rule as the data show it: active = GI50 up to about 1.1 µM and inactive = higher.
# What was measured:
# Assay in all cases: inhibition of tumour cell growth, NCI panel, 48 h
# 786-0 = system: 786-0
# A498 = system: A498
# A549 = system: A549
# ACHN = system: ACHN
# BT-549 = system: BT-549
# CAKI-1 = system: CAKI-1
# CCRF-CEM = system: CCRF-CEM
# COLO 205 = system: COLO 205
# DU-145 = system: DU-145
# HCC 2998 = system: HCC 2998
# HCT-116 = system: HCT-116
# HCT-15 = system: HCT-15
# HOP-62 = system: HOP-62
# HOP-92 = system: HOP-92
# HT-29 = system: HT-29
# Hs-578T = system: Hs-578T
# IGROV-1 = system: IGROV-1
# K562 = system: K562
# KM12 = system: KM12
# LOX IMVI = system: LOX IMVI
# M14 = system: M14
# MDA-MB-231 = system: MDA-MB-231
# MDA-MB-435 = system: MDA-MB-435
# MDA-N = system: MDA-N
# MOLT-4 = system: MOLT-4
# Malme-3M = system: Malme-3M
# NCI-H226 = system: NCI-H226
# NCI-H23 = system: NCI-H23
# NCI-H460 = system: NCI-H460
# NCI-H522 = system: NCI-H522
# NCI/ADR-RES = system: NCI/ADR-RES
# OVCAR-3 = system: OVCAR-3
# OVCAR-4 = system: OVCAR-4
# OVCAR-5 = system: OVCAR-5
# OVCAR-8 = system: OVCAR-8
# PC-3 = system: PC-3
# RPMI-8226 = system: RPMI-8226
# RXF 393 = system: RXF 393
# SF-268 = system: SF-268
# SF-295 = system: SF-295
# SK-MEL-28 = system: SK-MEL-28
# SK-MEL-2 = system: SK-MEL-2
# SK-MEL-5 = system: SK-MEL-5
# SK-OV-3 = system: SK-OV-3
# SN12C = system: SN12C
# SNB-19 = system: SNB-19
# SNB-75 = system: SNB-75
# SW-620 = system: SW-620
# T47D = system: T47D
# TK-10 = system: TK-10
# U-251 = system: U-251
# UACC-257 = system: UACC-257
# UACC-62 = system: UACC-62
# UO-31 = system: UO-31
# EKVX = system: EKVX
# HL-60 = system: HL-60
# MCF7 = system: MCF7
# SF-539 = system: SF-539
# SR = system: SR
compound,measurement,setting,value
CC(=O)Oc1cc2c(n(C)c1=O)-c1ccccc1C2,GI50,786-0,> 100 µM (inactive)
same,GI50,A498,97.7 µM (inactive)
same,GI50,A549,63.7 µM (inactive)
same,GI50,ACHN,32.5 µM (inactive)
same,GI50,BT-549,46.1 µM (inactive)
same,GI50,CAKI-1,29.1 µM (inactive)
same,GI50,CCRF-CEM,34.2 µM (inactive)
same,GI50,COLO 205,39.4 µM (inactive)
same,GI50,DU-145,> 100 µM (inactive)
same,GI50,HCC 2998,85.9 µM (inactive)
same,GI50,HCT-116,34.7 µM (inactive)
same,GI50,HCT-15,28.1 µM
same,GI50,HOP-62,81.7 µM (inactive)
same,GI50,HOP-92,46.7 µM (inactive)
same,GI50,HT-29,78.2 µM (inactive)
same,GI50,Hs-578T,65 µM (inactive)
same,GI50,IGROV-1,36.2 µM (inactive)
same,GI50,K562,> 100 µM (inactive)
same,GI50,KM12,> 100 µM (inactive)
same,GI50,LOX IMVI,29.4 µM (inactive)
same,GI50,M14,93.3 µM (inactive)
same,GI50,MDA-MB-231,61.4 µM (inactive)
same,GI50,MDA-MB-435,> 100 µM (inactive)
same,GI50,MDA-N,> 100 µM (inactive)
same,GI50,MOLT-4,66.8 µM (inactive)
same,GI50,Malme-3M,31.8 µM (inactive)
same,GI50,NCI-H226,> 100 µM (inactive)
same,GI50,NCI-H23,75.5 µM (inactive)
same,GI50,NCI-H460,43.8 µM (inactive)
same,GI50,NCI-H522,15.9 µM (inactive)
same,GI50,NCI/ADR-RES,23.2 µM (inactive)
same,GI50,OVCAR-3,33.3 µM (inactive)
same,GI50,OVCAR-4,32.5 µM (inactive)
same,GI50,OVCAR-5,> 100 µM (inactive)
same,GI50,OVCAR-8,32 µM (inactive)
same,GI50,PC-3,40.8 µM (inactive)
same,GI50,RPMI-8226,> 100 µM (inactive)
same,GI50,RXF 393,> 100 µM (inactive)
same,GI50,SF-268,44.1 µM (inactive)
same,GI50,SF-295,> 100 µM (inactive)
same,GI50,SK-MEL-28,> 100 µM (inactive)
same,GI50,SK-MEL-2,> 100 µM (inactive)
same,GI50,SK-MEL-5,85.3 µM (inactive)
same,GI50,SK-OV-3,> 100 µM (inactive)
same,GI50,SN12C,> 100 µM (inactive)
same,GI50,SNB-19,> 100 µM (inactive)
same,GI50,SNB-75,> 100 µM (inactive)
same,GI50,SW-620,24.4 µM (inactive)
same,GI50,T47D,> 100 µM (inactive)
same,GI50,TK-10,51.8 µM (inactive)
same,GI50,U-251,75.9 µM (inactive)
same,GI50,UACC-257,> 100 µM (inactive)
same,GI50,UACC-62,75.3 µM (inactive)
same,GI50,UO-31,41 µM (inactive)
O/N=C1/C2CC3CC1(c1ccccc1)CC(/C3=N/O)/C2=N\O (centres undefined),GI50,786-0,> 100 µM (inactive)
same,GI50,A498,> 100 µM (inactive)
same,GI50,A549,> 100 µM (inactive)
same,GI50,ACHN,> 100 µM (inactive)
same,GI50,BT-549,> 100 µM (inactive)
same,GI50,CAKI-1,> 100 µM (inactive)
same,GI50,CCRF-CEM,> 100 µM (inactive)
same,GI50,COLO 205,> 100 µM (inactive)
same,GI50,DU-145,> 100 µM (inactive)
same,GI50,EKVX,> 100 µM (inactive)
same,GI50,HCC 2998,> 100 µM (inactive)
same,GI50,HCT-116,> 100 µM (inactive)
same,GI50,HCT-15,> 100 µM
same,GI50,HL-60,> 100 µM (inactive)
same,GI50,HOP-62,> 100 µM (inactive)
same,GI50,HT-29,> 100 µM (inactive)
same,GI50,Hs-578T,> 100 µM (inactive)
same,GI50,K562,> 100 µM (inactive)
same,GI50,KM12,> 100 µM (inactive)
same,GI50,LOX IMVI,> 100 µM (inactive)
same,GI50,M14,> 100 µM (inactive)
same,GI50,MCF7,> 100 µM (inactive)
same,GI50,MDA-MB-231,> 100 µM (inactive)
same,GI50,MDA-MB-435,> 100 µM (inactive)
same,GI50,MDA-N,> 100 µM (inactive)
same,GI50,MOLT-4,> 100 µM (inactive)
same,GI50,Malme-3M,> 100 µM (inactive)
same,GI50,NCI-H226,> 100 µM (inactive)
same,GI50,NCI-H23,> 100 µM (inactive)
same,GI50,NCI-H460,> 100 µM (inactive)
same,GI50,NCI-H522,> 100 µM (inactive)
same,GI50,OVCAR-3,> 100 µM (inactive)
same,GI50,OVCAR-4,> 100 µM (inactive)
same,GI50,OVCAR-5,> 100 µM (inactive)
same,GI50,OVCAR-8,> 100 µM (inactive)
same,GI50,PC-3,95.9 µM (inactive)
same,GI50,RPMI-8226,> 100 µM (inactive)
same,GI50,RXF 393,> 100 µM (inactive)
same,GI50,SF-295,> 100 µM (inactive)
same,GI50,SF-539,> 100 µM (inactive)
same,GI50,SK-MEL-28,> 100 µM (inactive)
same,GI50,SK-MEL-2,> 100 µM (inactive)
same,GI50,SK-MEL-5,> 100 µM (inactive)
same,GI50,SK-OV-3,> 100 µM (inactive)
same,GI50,SN12C,> 100 µM (inactive)
same,GI50,SNB-19,> 100 µM (inactive)
same,GI50,SNB-75,> 100 µM (inactive)
same,GI50,SR,> 100 µM (inactive)
same,GI50,SW-620,> 100 µM (inactive)
same,GI50,T47D,> 100 µM (inactive)
same,GI50,TK-10,> 100 µM (inactive)
same,GI50,U-251,> 100 µM (inactive)
same,GI50,UACC-257,> 100 µM (inactive)
same,GI50,UACC-62,> 100 µM (inactive)
same,GI50,UO-31,> 100 µM (inactive)
